System: T1, Aspergillus sp. DHE7 β-glucosidase
T1 construct: gene beta-D-glucosidase; native extracellular enzyme purified from solid-state culture (jojoba meal): ethanol precipitation, DEAE-Sephadex A-50, Sephadex G-100; monomer, 135 kDa by SDS-PAGE
Experiment: p-nitrophenol release at […] nm, Lineweaver-Burk plot
Assay type: biochemical
Details: pH 6.0, 60 °C, 50 mM Na-citrate; 0.25 to 20 mM substrate; apparent Km

O=[N+]([O-])c1ccc(O[C@@H]2O[C@H](CO)[C@@H](O)[C@H](O)[C@H]2O)cc1 [p-nitrophenyl-β-D-glucopyranoside]
Km: 400 µM

— PMC7991022, “Optimization of extracellular ethanol-tolerant β-glucosidase production from a newly isolated Aspergillus sp. DHE7 via solid state fermentation using jojoba meal as substrate: purification and biochemical characterization for biofuel preparation” (Journal of Genetic Engineering & Biotechnology, 2021)
